The source of these data is BindingDB's records for doi:10.7270/Q2H993J6 (Pcmd, 2008).

Usually IC50 stands for the midpoint of a concentration-inhibition curve. Low readings indicate higher potency, high ones lower potency.

The target in the assay is Coagulation factor XI (Homo sapiens, UniProt P03951). Kind of assay: FXIa inhibitor IC50 values, dose response, biochemical, hits from 1536-well screen (AID 846). To be noted: pH 7.4; 23 °C.
Sequence of Coagulation factor XI (P03951 19-387 limits assumed): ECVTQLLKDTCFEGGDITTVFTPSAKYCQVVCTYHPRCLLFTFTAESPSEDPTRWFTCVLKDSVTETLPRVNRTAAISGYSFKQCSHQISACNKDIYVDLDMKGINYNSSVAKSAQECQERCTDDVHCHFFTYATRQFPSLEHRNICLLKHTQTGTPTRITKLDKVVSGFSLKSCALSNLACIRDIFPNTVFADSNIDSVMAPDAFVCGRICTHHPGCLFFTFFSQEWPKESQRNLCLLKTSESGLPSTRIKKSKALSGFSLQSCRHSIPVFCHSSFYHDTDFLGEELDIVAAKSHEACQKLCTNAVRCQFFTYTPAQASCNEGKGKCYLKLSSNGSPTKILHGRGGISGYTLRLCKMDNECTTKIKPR
Sequence of Coagulation factor XI (P03951 388-625 limits assumed): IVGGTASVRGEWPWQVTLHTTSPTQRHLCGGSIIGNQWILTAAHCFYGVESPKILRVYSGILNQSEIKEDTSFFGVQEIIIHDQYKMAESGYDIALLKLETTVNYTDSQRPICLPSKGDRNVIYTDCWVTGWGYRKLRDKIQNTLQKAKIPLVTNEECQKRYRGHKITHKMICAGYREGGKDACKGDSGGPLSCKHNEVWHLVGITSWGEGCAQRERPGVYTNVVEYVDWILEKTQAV
As to `CSc1nc2cc3c(cc2n1C(=O)c1ccc(C)cc1)OCCO3` [MLS000544330], the IC50 was 2.22 µM. This lies in the single-digit micromolar range.

Regarding `COc1ccc(N2C(=O)C(Cl)=C(N3CCCC(C)C3)C2=O)cc1` (stereo not given) [SMR000142424], the IC50 was greater than 50 µM.

As to `O=C(Oc1ccc2c(=O)c(Cl)coc2c1)c1ccncc1` [SMR000014947], half-maximal inhibition (IC50) was put at 6.2 µM.

`Cc1cccc(OCC(O)CN2CC3(C)CC2CC(C)(C)C3)c1` (stereo not given) [SMR000249047] displayed an IC50 greater than 50 µM.

The compound `O=C(NC1CCCC1)C(c1ccccn1)N(C(=O)c1csnn1)C1CC1` (stereo not given) [N-[2-(cyclopentylamino)-2-oxo-1-(2-pyridinyl)ethyl]-N-cyclopropyl-4-thiadiazolecarboxamide] registered an IC50 greater than 50 µM.

`Oc1ccc(CN=Nc2nc(-c3cccnc3)nc3ccccc23)c(O)c1` [(4E)-3-hydroxy-4-[[2-(2-pyridin-3-ylquinazolin-4-yl)hydrazinyl]methylidene]cyclohexa-2,5-dien-1-one] gave an IC50 greater than 50 µM.

Turning to `FC(F)C(F)(F)C(F)(F)C(F)(F)c1cc(-c2ccccc2)n[nH]1` [MLS000106686], the IC50 was greater than 50 µM.

On to `Oc1ccc(C=NN2CCN(C3c4ccccc4-c4ccccc43)CC2)c(O)c1` [4-({[4-(9H-fluoren-9-yl)-1-piperazinyl]imino}methyl)-1,3-benzenediol], for which the IC50 was greater than 50 µM.

`CCCCCC(=O)Nc1cccc([C+]2CC3(CC(C(N)=O)N(C(=O)c4cc([N+](=O)[O-])cc([N+](=O)[O-])c4C)C3)O[N-]2)c1` (stereo not given) [MLS000561980] showed an IC50 of 34.4 µM.

`O=C(c1cc(Cl)nc2ccccc12)N1CCc2ccccc2C1` [SMR000347901] returned an IC50 greater than 50 µM.

With `CCC1CCC2(CC1)SCC(=O)N2c1ccccc1` (stereo not given) [SMR000425321], the IC50 is greater than 50 µM.

`CN(C)c1ccc(C(=S)N2CCN(c3ccc([N+](=O)[O-])cc3)CC2)cc1` [MLS001033622] registered an IC50 greater than 50 µM.

`Cc1ccc(C(=O)NCC(=O)OC(C)C(=O)Nc2ccc(N3CCOCC3)cc2)s1` (stereo not given) [[1-(4-morpholin-4-ylanilino)-1-oxopropan-2-yl] 2-[(5-methylthiophene-2-carbonyl)amino]acetate] returned an IC50 greater than 50 µM.

Regarding `Cc1ccc(C(=O)ON=C2CCS(=O)(=O)c3sccc32)cc1` [[[7,7-bis(oxidanylidene)-5,6-dihydrothieno[2,3-b]thiopyran-4-ylidene]amino] 4-methylbenzoate], the IC50 was determined as 3.46 µM.

On to `O=C(Oc1ccc2ccc(=O)oc2c1)c1cccs1` [2-thiophenecarboxylic acid (2-oxo-1-benzopyran-7-yl) ester], for which half-maximal inhibition (IC50) was put at 2.68 µM.

As for `O=[N+]([O-])c1ccc(OCCO)c(P(=O)(c2ccccc2)c2ccccc2)c1` [SMR000420001], the IC50 was greater than 50 µM.

For the compound `C=C(C)CNC(=S)Nc1cccc(N)n1`, the IC50 was greater than 50 µM.

`Clc1ccccc1Cn1nnc2c(NCCN3CCOCC3)ncnc21` [3-[(2-chlorophenyl)methyl]-N-(2-morpholin-4-ylethyl)triazolo[4,5-d]pyrimidin-7-amine]: the IC50 was greater than 50 µM.

Take `CCc1cccc(NC(=O)Cc2ccc([N+](=O)[O-])cc2)c1`: the IC50 is greater than 50 µM.

Consider `CCOC(=O)CSc1nnc(-c2ccccc2)o1` [MLS000526656], for which the IC50 was greater than 50 µM.

In turn, `COc1ccc(S(=O)(=O)NCCOc2cccc3cccnc23)cc1OC` [MLS000716779] came in with an IC50 greater than 50 µM.

`Cc1cccc(CN2CCN(CC(=O)N3CCCC3)C2=O)c1` [SMR000130591] registered a half-maximal inhibitory concentration (IC50) greater than 50 µM.

With `CCOCCCNS(=O)(=O)c1ccc(NC(=O)c2ccc(OC)c([N+](=O)[O-])c2)cc1` [N-[4-(3-ethoxypropylsulfamoyl)phenyl]-4-methoxy-3-nitrobenzamide], the IC50 was greater than 50 µM.

In the case of `CCOC(=O)c1c(C)n(C)c2ccc(OC)c(NC(=O)CCN3CCC(Cc4ccccc4)CC3)c12` [ethyl 5-methoxy-1,2-dimethyl-4-[3-[4-(phenylmethyl)piperidin-1-yl]propanoylamino]indole-3-carboxylate], the IC50 is greater than 50 µM.

Consider `CC1=NN(C(C#N)c2ccc([N+](=O)[O-])cc2)C(C)(C)C1` (stereo not given) [MLS001049177], for which the IC50 was greater than 50 µM.
